From patent publication US4197286A, “Testosterone derivatives and assay method” (Southwest Research Institute, priority 1977, dated 1980)

What follows are compounds tested on anti-testosterone serum from rabbit No. X-181 (assay: Cross-reactivity of structurally similar steroids with the anti-testosterone serum). Settings: antiserum of rabbit X-181; testosterone = 100.
Type: binding
Experimental: Also, the cross-reactivity of pertinent and structurally similar steroids was determined to be as follows:
For `C[C@]12CC[C@H]3[C@@H](CC=C4C[C@@H](O)CC[C@@]43C)[C@@H]1CC[C@@H]2O` [5-Androstene-3β,17β-diol], the “% CROSS-REACTIVITY” value was 0.51%.
In the case of `C[C@]12CC[C@@H](O)C[C@@H]1CC[C@@H]1[C@@H]2CC[C@]2(C)[C@@H](O)CC[C@@H]12` [5α-Androstane-3α, 17β-diol], the “% CROSS-REACTIVITY” value is reported as 0.00%.
`C[C@]12CC[C@H](O)C[C@@H]1CC[C@@H]1[C@@H]2CC[C@]2(C)[C@@H](O)CC[C@@H]12` [5α-Androstane-3β,17β-diol] was tested, and the “% CROSS-REACTIVITY” value was 2.19%.
`C[C@]12CCC(=O)C[C@@H]1CC[C@@H]1[C@@H]2CC[C@]2(C)[C@@H](O)CC[C@@H]12` [5α-Dihydrotestosterone] was tested, and the “% CROSS-REACTIVITY” value was 6.65%.
With `C[C@]12CCC(=O)C[C@H]1CC[C@@H]1[C@@H]2CC[C@]2(C)C(=O)CC[C@@H]12` [5β-Androstane-3,17-dione] the “% CROSS-REACTIVITY” value was 0.00%.
In the case of `C[C@]12CCC(=O)C[C@H]1CC[C@@H]1[C@@H]2CC[C@]2(C)[C@@H](O)CC[C@@H]12` [5β-Dihydrotestosterone], the “% CROSS-REACTIVITY” value is reported as 0.63%.
With `C[C@]12CC[C@H]3[C@@H](C[C@H](O)C4=CC(=O)CC[C@@]43C)[C@@H]1CC[C@@H]2O` [6α-Hydroxytestosterone] the “% CROSS-REACTIVITY” value was 0.75%.
With `C[C@]12CCC(=O)C=C1CC[C@@H]1[C@@H]2[C@@H](O)C[C@]2(C)C(=O)CC[C@@H]12` [11β-Hydroxyandrostenodione] the “% CROSS-REACTIVITY” value was 0.00%.
`C[C@]12C[C@H](O)[C@H]3[C@@H](CCC4=CC(=O)CC[C@@]43C)[C@@H]1CC[C@@H]2O` [11β-Hydroxytestosterone] was tested, and the “% CROSS-REACTIVITY” value was 0.00%.
In the case of `C[C@]12CC(=O)[C@H]3[C@@H](CCC4=CC(=O)CC[C@@]43C)[C@@H]1CC[C@@H]2O` [11β-Oxotestosterone], the “% CROSS-REACTIVITY” value is reported as 1.80%.
With `C[C@]12CCC(=O)C=C1CC[C@@H]1[C@@H]2CC[C@]2(C)C(=O)CC[C@@H]12` [Androstenedione] the “% CROSS-REACTIVITY” value was 0.90%.
With `C[C@]12CC[C@@H](O)C[C@@H]1CC[C@@H]1[C@@H]2CC[C@]2(C)C(=O)CC[C@@H]12` [Androsterone] the “% CROSS-REACTIVITY” value was 0.00%.
`C[C@]12C[C@H](O)[C@H]3[C@@H](CCC4=CC(=O)CC[C@@]43C)[C@@H]1CC[C@@H]2C(=O)CO` [Corticosterone] was tested, and the “% CROSS-REACTIVITY” value was 0.00%.
`C[C@]12CC[C@H](O)CC1=CC[C@@H]1[C@@H]2CC[C@]2(C)C(=O)CC[C@@H]12` [Dehydroepiandrosterone] was tested, and the “% CROSS-REACTIVITY” value was 0.00%.
`C[C@]12CC[C@H]3[C@@H](CCC4=CC(=O)CC[C@@]43C)[C@@H]1CC[C@@H]2C(=O)CO` [Deoxycorticosterone] was tested, and the “% CROSS-REACTIVITY” value was 0.00%.
With `C[C@]12CC[C@H](O)C[C@@H]1CC[C@@H]1[C@@H]2CC[C@]2(C)C(=O)CC[C@@H]12` [Epiandrosterone] the “% CROSS-REACTIVITY” value was 0.19%.
With `C[C@]12CC[C@@H]3c4ccc(O)cc4CC[C@H]3[C@@H]1CC[C@@H]2O` [Estradiol] the “% CROSS-REACTIVITY” value was 0.43%.
For `C[C@]12CC[C@@H]3c4ccc(O)cc4CC[C@H]3[C@@H]1C[C@@H](O)[C@@H]2O` [Estriol], the “% CROSS-REACTIVITY” value was 0.00%.
For `C[C@]12CC[C@@H]3c4ccc(O)cc4CC[C@H]3[C@@H]1CCC2=O` [Estrone], the “% CROSS-REACTIVITY” value was 0.00%.
For `CC(=O)[C@H]1CC[C@H]2[C@@H]3CCC4=CC(=O)CC[C@]4(C)[C@H]3CC[C@]12C` [Progesterone], the “% CROSS-REACTIVITY” value was 0.00%.
With `C[C@]12CC[C@H]3[C@@H](CCC4=CC(=O)CC[C@@]43C)[C@@H]1CC[C@@H]2O` [Testosterone] the “% CROSS-REACTIVITY” value was 100.00%.
